Our source for the IC50 and Emax values is patent US20230105212A1, “BIPHENYL DERIVATIVE INHIBITOR, PREPARATION METHOD THEREFOR AND USE THEREOF” (SHANGHAI HANSOH BIOMEDICAL CO., LTD., priority 2020, published 2023).

The target in one test is T1, human PD-1/PD-L1 binding (Homo sapiens, UniProt Q9NZQ7).
T1 construct: PD-L1-His protein (19 to 238 amino acids) (Abcam #ab167713); purchased Abcam (PD-L1-His); R&D (PD-1-Fc) ab167713; 1086-PD
Description: Inhibition of human PD-1/PD-L1 binding (TR-FRET/HTRF). The note with it: TR-FRET, PD-L1-His and PD-1-Fc; read-out: PD-1/PD-L1 binding IC50. The source says:
Test Embodiment 1: Test of Inhibitory Effect of the Compounds of the Present Disclosure on Human PD-1/PD-L1 Binding
Experimental purpose: The purpose of this test embodiment was to measure the inhibitory activity of the compounds on human PD-1/PD-L1 binding.
Experimental reagents: Binding Domain diluent buffer was purchased from Cisbio Company, Cat. No.: 62DLBDDF; MAb Anti-6HIS Eu cryptate Gold was purchased from Cisbio Company with the article number of 61HI2KLA; PAb Anti Human IgG-XL665 was purchased from Cisbio Company with the article number of 61HFCXLB; PD-L1-His protein was purchased from Abcam Company with the article number of ab167713; PD-1-Fc protein was purchased from R&D Company with the article number of 1086-PD; Detection buffer was purchased from Cisbio Company with the article number of 62SDBRDD; 384-well plate was purchased from PerkinElmer Company with the article number of 6007290.
Experimental method: In order to test the inhibitory activity of the compounds on human PD-1/PD-L1 binding, the method of time-resolved fluorescence resonance energy transfer (TR-FRET) was used in this experiment to test the inhibition of the compounds on human PD-1/PD-L1 binding, and the half inhibitory concentration IC50 of inhibitory activity of the compounds on human PD-1/PD-L1 binding was obtained.
This experiment was performed in a 384-well plate with a total reaction volume of 20 μL. Compounds were diluted to different concentrations (10 μM or 1 μM starting, 3-fold dilution, 11 doses) using assay buffer Binding Domain diluent buffer (Cisbio #62DLBDDF), then PD-L1-His protein (19 to 238 amino acids) (Abcam #ab167713) was diluted to 10 nM with assay buffer, and PD-1-Fc protein (25 to 167 amino acids) (R&D #1086-PD) was diluted to 20 nM with assay buffer; the compound, PD-L1 protein and PD-1 protein were added to a 384-well plate respectively, and the total volume was 10 μL, then centrifuged at 1000 rpm for 1 minute to mix well, and incubated for 60 minutes at room temperature. Then 10 μL of a mixed solution of MAb Anti-6HIS Eu cryptate Gold (Cisbio #61HI2KLA) and PAb Anti Human IgG-XL665 (Cisbio #61HFCXLB) diluted by HTRF Detection buffer was added to each well, and centrifuged at 1000 rpm for 1 minute to mix well. The reaction was carried out at room temperature for 3 hours or at 4° C. overnight, then a microplate reader (BioTek Synergy H1) was put into for reading; the excitation wavelength was 340 nm, and the emission wavelengths were 620 nm and 665 nm.
The ratio of fluorescence readings at 620 nm and 665 nm (665 nm/620 nm) was calculated, and the inhibition rate was calculated.
A general note: In TR-FRET formats the signal depends on donor and acceptor labels being close together.

Test [1] concerns the target T2, PD-L1 protein on the surface of MC38-hPDL1 tumor cells (Homo sapiens, UniProt Q9NZQ7).
T2 construct: expressed in transfected cells; host or cells: MC38-hPDL1 (mouse colon cancer cells)
Description: Induction of endocytosis of PD-L1 on the surface of tumor cells (flow cytometry). It counts as cell-based. The note with it: 16 hours incubation; for Emax: MC38-hPDL1 cells, read-out: MC38 maximum endocytosis rate; for IC50: inducing endocytosis of PD-L1, MC38-hPDL1 cells, read-out: MC38 IC50. The text has this:
Test Embodiment 2. Test of the Activity of Compounds of the Present Disclosure on Inducing the Endocytosis of PD-L1 Protein on the Surface of Tumor Cells
Experimental purpose: The purpose of this test embodiment was to test the activity of the compound on inducing the endocytosis of PD-L1 on the surface of tumor cells.
Experimental method: In order to test the activity of the compound on inducing the endocytosis of PD-L1, in this experiment, the activity of the compound on inducing the endocytosis of PD-L1 was tested by detecting the change degree of PD-L1 on the tumor cell surface with fluorescently labeled anti-PD-L1 antibody, and the IC50 of activity of the compound on inducing the endocytosis of PD-L1 was obtained.
The mouse colon cancer cells MC38-hPDL1 with high expression of hPD-L1 were collected, and adjusted to a suitable density and plated in a 24-well plate, and placed in a 37° C., 5% CO2 incubator to adhere overnight. Compounds were prepared into different concentrations by medium and added to a 24-well plate, and a vehicle control well was set up. After the cells were incubated in a 37° C., 5% CO2 incubator for 16 hours, the 24-well plate was taken out, and MC38-hPDL1 cells with different treatments in the plate were collected. After the cells were washed once with FACS buffer (PBS containing 0.5% BSA), and the cells were prepared to an appropriate density with FACS buffer. PE Mouse Anti-Human CD274 antibody (BD Pharmingen #557924) was added, and the cells were shaken at room temperature and incubated for 30 minutes without light, then the cells were washed twice with FACS buffer, resuspended in 100 μL of PBS, and a flow cytometer was used to detect the fluorescent signal on the cell surface, and the isotype control was set as a negative control.
The endocytosis rate of the compounds was calculated from the fluorescence signals of different treatment groups, and the compound concentration and endocytosis rate were fitted by nonlinear regression using GraphPad Prism software, and IC50 values were obtained, as shown in Table 2.

Structures are written as SMILES.

T2 sequence (Q9NZQ7 19-290): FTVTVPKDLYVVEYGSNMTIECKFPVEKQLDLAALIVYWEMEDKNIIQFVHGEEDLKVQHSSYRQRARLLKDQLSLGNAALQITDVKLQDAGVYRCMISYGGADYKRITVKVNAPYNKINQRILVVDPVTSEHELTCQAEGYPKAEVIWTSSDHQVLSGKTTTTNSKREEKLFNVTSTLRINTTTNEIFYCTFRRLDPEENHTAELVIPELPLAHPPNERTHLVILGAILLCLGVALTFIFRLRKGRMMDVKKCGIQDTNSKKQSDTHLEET
T1 sequence (Q9NZQ7 19-238): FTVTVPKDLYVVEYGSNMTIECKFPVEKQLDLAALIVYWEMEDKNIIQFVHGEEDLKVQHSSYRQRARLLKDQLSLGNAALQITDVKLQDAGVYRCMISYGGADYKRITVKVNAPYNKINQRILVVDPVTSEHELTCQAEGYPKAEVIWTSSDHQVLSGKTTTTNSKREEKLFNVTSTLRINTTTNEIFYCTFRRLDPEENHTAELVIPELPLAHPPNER

On to `COc1cc(C(=O)Nc2cccc(-c3cccc(NC(=O)c4nc5c(n4C)CCN(C)C5)c3Cl)c2C)ncc1CNCCF` [Embodiment 18, N-(2-Chloro-3′-(5-(((2-fluoroethyl)amino)methyl)-4-methoxypicolinamido)-2′-methyl-[1,1′-biphenyl]-3-yl)-1,5-dimethyl-4,5,6,7-tetrahydro-1H-imidazo[4,5-c]pyridine-2-carboxamide], for which the IC50 on human PD-1/PD-L1 binding amounted to 2.4 nM. Moreover, in test [1], the Emax was 91% and the IC50 was 1.5 nM.
As to `COc1cc(C(=O)Nc2cccc(-c3cccc(NC(=O)c4nc5c(n4C)CCN(C)C5)c3Cl)c2C)ncc1CN1CC(F)(CO)COC1=O` (stereo not drawn) [Embodiment 22, N-(2-Chloro-3′-(5-((5-fluoro-5-(hydroxymethyl)-2-carbonyl-1,3-oxazinan-3-yl)methyl)-4-methoxypicolinamido)-2′-methyl-[1,1′-biphenyl]-3-yl)-1,5-dimethyl-4,5,6,7-tetrahydro-1H-imidazo[4,5-c]pyridine-2-carboxamide], the IC50 at human PD-1/PD-L1 binding came to 5.9 nM. In test [1], the Emax amounted to 92% and the IC50 was 14.5 nM.
On the same counts, the results for `COc1cc(C(=O)Nc2cccc(-c3cccc(NC(=O)c4nc5c(n4C)CCN(C)C5)c3Cl)c2C)ncc1CNC1CCOCC1` [Embodiment 35, N-(2-Chloro-3′-(4-methoxy-5-(((tetrahydro-2H-pyran-4-yl)amino)methyl)picolinamido)-2′-methyl-[1,1′-biphenyl]-3-yl)-1,5-dimethyl-4,5,6,7-tetrahydro-1H-imidazo[4,5-c]pyridine-2-carboxamide] are 3.6 nM, 96% and 1.3 nM.
With `COc1cc(C(=O)Nc2cccc(-c3cccc(NC(=O)c4nc5c(n4C)CCN(C)C5)c3Cl)c2C)ncc1CNC[C@@H]1CCC(=O)N1` [Embodiment 39, (S)—N-(2-Chloro-3′-(4-methoxy-5-((((5-carbonylpyrrolidin-2-yl)methyl)amino)methyl)picolinamido)-2′-methyl-[1,1′-biphenyl]-3-yl)-1,5-dimethyl-4,5,6,7-tetrahydro-1H-imidazo[4,5-c]pyridine-2-carboxamide], the IC50 on human PD-1/PD-L1 binding was 5 nM. For the same compound, in test [1], the Emax came out at 97% and the IC50 was found to be 1.9 nM.
On to `C=CCNCc1cnc(C(=O)Nc2cccc(-c3cccc(NC(=O)c4nc5c(n4C)CCN(C)C5)c3Cl)c2C)cc1OC` [Embodiment 41, N-(3′-(5-((Allylamino)methyl)-4-methoxypicolinamido)-2-chloro-2′-methyl-[1,1′-biphenyl]-3-yl)-1,5-dimethyl-4,5,6,7-tetrahydro-1H-imidazo[4,5-c]pyridine-2-carboxamide], for which the IC50 at human PD-1/PD-L1 binding is 4 nM. For the same compound, in test [1], the Emax came out at 90% and the IC50 is 1.9 nM.
Taken in the same sequence, the figures for `COc1cc(C(=O)Nc2cccc(-c3cccc(NC(=O)c4nc5c(n4C)CCN(C)C5)c3Cl)c2C)ncc1CO` [Embodiment 49, N-(2-Chloro-3′-(5-(2-hydroxymethyl)-4-methoxypicolinamido)-2′-methyl-[1,1′-biphenyl]-3-yl)-1,5-dimethyl-4,5,6,7-tetrahydro-1H-imidazo[4,5-c]pyridine-2-carboxamide] were 5.1 nM, 93% and 10.7 nM.
With `Cc1c(NC(=O)c2cc(C3CC3)c(CO)cn2)cccc1-c1cccc(NC(=O)c2nc3c(n2C)CCN(C)C3)c1Cl` [Embodiment 51, N-(2-Chloro-3′-(4-cyclopropyl-5-(hydroxymethyl)picolinamido)-2′-methyl-[1,1′-biphenyl]-3-yl)-1,5-dimethyl-4,5,6,7-tetrahydro-1H-imidazo[4,5-c]pyridine-2-carboxamide], the IC50 at human PD-1/PD-L1 binding was 5.5 nM. Moreover, in test [1], the Emax was found to be 91% and the IC50 turned out to be 11.8 nM.
On the same counts, the results for `COc1cc(-c2cccc(-c3cccc(NC(=O)c4nc5c(n4C)CCN(C)C5)c3Cl)c2Cl)ncc1CNC[C@@H]1CCC(=O)N1` [Embodiment 56, (S)—N-(2,2′-Dichloro-3′-(4-methoxy-5-((((5-carbonylpyrrolidin-2-yl)methyl)amino)methyl)pyridin-2-yl)-[1,1′-biphenyl]-3-yl)-1,5-dimethyl-4,5,6,7-tetrahydro-1H-imidazo[4,5-c]pyridine-2-carboxamide] are 2.1 nM, 91% and 12.2 nM.
On the same counts, the results for `COc1cc(-c2cccc(-c3cccc(NC(=O)c4nc5c(n4C)CCN(C)C5)c3Cl)c2C)ncc1CNC1CCOCC1` [Embodiment 59, N-(2-Chloro-3′-(4-methoxy-5-(((tetrahydro-2H-pyran-4-yl)amino)methyl)pyridin-2-yl)-2′-methyl-[1,1′-biphenyl]-3-yl)-1,5-dimethyl-4,5,6,7-tetrahydro-1H-imidazo[4,5-c]pyridine-2-carboxamide] are 4.7 nM, 85% and 9.6 nM.
Take `COc1cc(NCc2cnc(C(=O)Nc3cccc(-c4cccc(NC(=O)c5nc6c(n5C)CCNC6)c4Cl)c3Cl)cc2OC)ccn1` [Embodiment 81, N-(2,2′-Dichloro-3′-(4-methoxy-5-(((2-methoxypyridin-4-yl)amino)methyl)picolinamido)-[1,1′-biphenyl]-3-yl)-1-methyl-4,5,6,7-tetrahydro-1H-imidazo[4,5-c]pyridine-2-carboxamide]: on human PD-1/PD-L1 binding, the IC50 is 2.4 nM. Further, in test [1], the Emax came out at 86% and the IC50 was 5 nM.
As to `CCN1CCc2c(nc(C(=O)Nc3cccc(-c4cccc(NC(=O)c5cc(OC)c(CNc6ccnc(OC)c6)cn5)c4Cl)c3Cl)n2C)C1` [Embodiment 82, N-(2,2′-Dichloro-3′-(4-methoxy-5-(((2-methoxypyridin-4-yl)amino)methyl)picolinamido)-[1,1′-biphenyl]-3-yl)-5-ethyl-1-methyl-4,5,6,7-tetrahydro-1H-imidazo[4,5-c]pyridine-2-carboxamide], the IC50 at human PD-1/PD-L1 binding is 3.9 nM; in test [1], 12 nM. For the same compound, the Emax in test [1] is 85%.
On the same counts, the results for `COc1cc(C(=O)Nc2cccc(-c3cccc(NC(=O)c4nc5c(n4C)CCN(C)C5)c3Cl)c2C)ncc1CN[C@H]1CCCNC1=O` [Embodiment 98, (S)—N-(2-Chloro-3′-(4-methoxy-5-(((2-carbonylpiperidin-3-yl)amino)methyl)picolinamido)-2′-methyl-[1,1′-biphenyl]-3-yl)-1,5-dimethyl-4,5,6,7-tetrahydro-1H-imidazo[4,5-c]pyridine-2-carboxamide] are 6.3 nM, 5.6 nM and 93%.
